Measured values as given in patent US10259807B2, “1-(piperazin-1-yl)-2-([1,2,4]triazol-1-yl)-ethanone derivatives” (Idorsia Pharmaceuticals Ltd., priority 2013, dated 2019).

Tests used:
human CXCR3A = molecular target: T1, human CXCR3A (Homo sapiens, UniProt P49682); assay: FLIPR assay (CXCL10-induced calcium signal in CHO-K1 cells); assay type: cell-based; details: CHO-K1 cells expressing human CXCR3A coupled to Galpha(16); CXCL10 agonist 20 nM; mean values
T1 construct: expressed in transfected cells; host or cells: CHO-K1
T1 sequence (P49682 1-368): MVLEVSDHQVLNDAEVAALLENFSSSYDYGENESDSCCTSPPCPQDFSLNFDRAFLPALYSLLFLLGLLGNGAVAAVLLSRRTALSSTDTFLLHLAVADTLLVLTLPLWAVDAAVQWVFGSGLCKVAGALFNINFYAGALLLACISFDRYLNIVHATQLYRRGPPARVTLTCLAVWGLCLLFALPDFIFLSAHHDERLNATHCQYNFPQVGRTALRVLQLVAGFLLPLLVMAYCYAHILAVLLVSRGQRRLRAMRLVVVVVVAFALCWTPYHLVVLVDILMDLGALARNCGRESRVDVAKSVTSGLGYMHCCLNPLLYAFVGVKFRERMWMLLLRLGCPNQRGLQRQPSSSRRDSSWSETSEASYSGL
Protocol: A) FLIPR assay: The bioactivity of compounds is tested in a fluorometric imaging plate reader (FLIPR: Molecular Devices) using engineered CHO-K1 cells expressing the human CXCR3A (GenBank: AY242128) coupled to a G protein (Galpha(16)). Cells are plated the day prior to bioassay in F12 medium supplemented with 10% FBS and G418 and hygromycin antibiotics to maintain recombinant selection. […] Cells are washed free of excess dye and 60 microliter of wash buffer is added. Stock solutions of test compounds are made up at a concentration of 10 mM in DMSO, and serially diluted in dilution buffer to concentrations required for inhibition dose response curves. After a 10 minute incubation period at 37° C., 10 microliters of each compound dilution are transferred from a compound plate to the plate containing the recombinant cells in the FLIPR instrument according to the manufacturer's instructions. Following basal readings, 10 microliter CXCL10 agonist at a concentration of 20 nM (from Peprotech) is added, again using the FLIPR instrument. Changes in fluorescence are monitored before and after addition of the test compounds. Emission peak values above base level after CXCL10 addition are exported after base line subtraction. The program XLfit is used to fit the data to a single site dose response curve and to calculate IC50 values. The calculated IC50 values may fluctuate depending on the daily assay performance. Fluctuations of this kind are known to those skilled in the art.

hERG K channel = molecular target: T2, hERG K channel (Homo sapiens, UniProt Q12809); assay: hERG Q-Patch assay; assay type: cell-based; details: CHO cells expressing hERG, K+ tail current 3 min after application, mean of two or three experiments
T2 construct: host or cells: CHO
Protocol: B) hERG Q-Patch assay: Compounds are evaluated for block of the hERG K channel using CHO cells stably expressing the hERG gene (accession number U04270, bSys, Witterswil. Switzerland) and the Patch robotic platform (Sophion, Ballerup, Denmark) in single-cell mode at room temperature. […] When the cells are ˜80% confluent (every 2-3 days), they are either split for further culture or used for electrophysiology. […] Cells are kept in suspension medium at 32-35° C. in the QPatch robot until use, at which time aliquots are transferred to the extracellular solution (in mM: NaCl 150; KCl 4; CaCl2 1.2; MgCl2 1; HEPES 10; pH 7.4 with NaOH) containing 0.3% v/v DMSO and applied to the test plates. K^+ currents are measured with the patch-voltage-clamp technique in the whole-cell configuration with the internal solution (in […]: KCl, 140; NaCl, 10; MgCl2, 1; HEPES, 10; EGTA, 5; pH=7.2 with KOH). […] K^+tail currents are produced from a holding voltage of −80 mV by a 500-ms depolarization to +20 mV followed by a 500-ms repolarization to −40 mV; tail current amplitudes are measured at the end of the repolarization to −40 mV. The pulse pattern is repeated every 10 sec during the experiment, baseline K^+ current is measured after 3 min in extracellular solution, test-solution containing compound is then applied, and K^+ current in presence of compound is measured 3 minutes after application to the cells.

[1] = Human liver microsome assay (metabolic stability); assay type: in vitro ADME; details: human liver microsomes 0.5 mg/mL, compound 1 μM, 37° C., pH 7.4, NADPH-regenerating system
Protocol: Incubation with human liver microsomes was performed to assess metabolic stability at a single compound concentration of 1 μM. A 1 μL-aliquot of the compounds stock solutions in DMSO were added to 899 μL of 100 mM phosphate buffer (pH 7.4) containing the liver microsomes at a concentration of 0.5 mg/mL and the mixture was incubated at 37° C. in an Eppendorf thermomixer at 450 rpm. The reaction was initiated by addition of 100 μL of NADPH-regenerating system containing the glucose-6-phosphate dehydrogenase and at the pre-defined time points, 0, 1.5, 2.5, 5, 10, and 15 min, 100 μL of the incubation was transferred in 100 μL of ice-cold methanol to stop the reaction. Samples were centrifuged at 3220 g for 20 min at 4° C. and the supernatants were submitted to LC/MS-MS analysis.
Calculation of intrinsic clearance CLint:
Natural logarithm of remaining amount of compound was plotted as function of time and the slope of the line determined.
Elimination rate constant (k)=−slope
V=volume of incubation/amount of protein

T2 sequence (Q12809 whole entry): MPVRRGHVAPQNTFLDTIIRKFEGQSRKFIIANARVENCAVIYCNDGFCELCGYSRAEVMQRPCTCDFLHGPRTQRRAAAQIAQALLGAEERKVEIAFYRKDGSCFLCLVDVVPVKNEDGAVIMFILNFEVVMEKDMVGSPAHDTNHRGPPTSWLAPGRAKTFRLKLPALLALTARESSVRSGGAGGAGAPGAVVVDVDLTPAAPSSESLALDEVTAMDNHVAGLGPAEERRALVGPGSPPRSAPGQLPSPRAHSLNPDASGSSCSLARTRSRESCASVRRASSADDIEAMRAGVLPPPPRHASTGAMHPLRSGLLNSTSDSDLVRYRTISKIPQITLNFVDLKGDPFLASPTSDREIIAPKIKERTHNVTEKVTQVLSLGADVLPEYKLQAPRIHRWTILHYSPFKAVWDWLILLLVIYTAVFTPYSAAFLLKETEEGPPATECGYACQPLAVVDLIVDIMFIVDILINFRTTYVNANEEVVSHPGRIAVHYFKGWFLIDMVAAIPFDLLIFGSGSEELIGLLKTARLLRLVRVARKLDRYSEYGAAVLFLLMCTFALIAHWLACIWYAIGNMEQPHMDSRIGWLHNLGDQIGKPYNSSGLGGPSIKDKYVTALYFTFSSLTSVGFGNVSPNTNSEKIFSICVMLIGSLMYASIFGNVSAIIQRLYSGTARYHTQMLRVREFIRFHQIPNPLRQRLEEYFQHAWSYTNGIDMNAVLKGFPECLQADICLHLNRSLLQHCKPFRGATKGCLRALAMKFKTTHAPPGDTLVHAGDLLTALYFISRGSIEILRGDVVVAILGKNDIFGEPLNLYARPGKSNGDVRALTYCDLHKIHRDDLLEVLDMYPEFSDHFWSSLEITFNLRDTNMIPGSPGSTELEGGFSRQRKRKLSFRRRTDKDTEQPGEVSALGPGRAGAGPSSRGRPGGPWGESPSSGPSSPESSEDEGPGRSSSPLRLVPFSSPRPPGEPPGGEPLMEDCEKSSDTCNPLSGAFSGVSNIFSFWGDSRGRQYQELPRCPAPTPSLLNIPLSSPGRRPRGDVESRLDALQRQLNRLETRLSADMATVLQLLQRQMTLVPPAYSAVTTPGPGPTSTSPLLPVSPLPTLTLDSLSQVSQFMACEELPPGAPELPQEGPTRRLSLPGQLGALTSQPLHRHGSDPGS

Compound	IC50 (human CXCR3A)	microsomal CLint at 1 µM [1]	% block (hERG K channel; concentration 300 nM)	% block (hERG K channel; concentration 3000 nM)
CCCc1ncc(-c2nc(C(F)(F)F)sc2N2CCN(C(=O)Cn3nc(C)nc3C)[C@H](C)C2)cn1 [Example 22, 2-(3,5-Dimethyl-[1,2,4]triazol-1-yl)-1-{(R)-2-methyl-4-[4-(2-propyl-pyrimidin-5-yl)-2-trifluoromethyl-thiazol-5-yl]-piperazin-1-yl}-ethanone]	2.9 nM	78 µL/min/mg	1%	7%
Cc1nc(C)n(CC(=O)N2CCN(c3sc(C(F)(F)F)nc3-c3cnc(OC(C)C)nc3)C[C@H]2C)n1 [Example 27, 2-(3,5-Dimethyl-[1,2,4]triazol-1-yl)-1-{(R)-4-[4-(2-isopropoxy-pyrimidin-5-yl)-2-trifluoromethyl-thiazol-5-yl]-2-methyl-piperazin-1-yl}-ethanone]	3.5 nM	13 µL/min/mg	2%	6%
Cc1nc(C)n(CC(=O)N2CCN(c3sc(C(F)(F)F)nc3-c3ccc(Cl)cc3)C[C@H]2C)n1 [Example 7, 1-{(R)-4-[4-(4-Chloro-phenyl)-2-trifluoromethyl-thiazol-5-yl]-2-methyl-piperazin-1-yl}-2-(3,5-dimethyl-[1,2,4]triazol-1-yl)-ethanone]	9.3 nM	7 µL/min/mg	34%	88%
CCOc1ncc(-c2nc(C(F)(F)F)sc2N2CCN(C(=O)Cn3nc(C)nc3C)[C@H](C)C2)cn1 [Example 20, 2-(3,5-Dimethyl-[1,2,4]triazol-1-yl)-1-{(R)-4-[4-(2-ethoxy-pyrimidin-5-yl)-2-trifluoromethyl-thiazol-5-yl]-2-methyl-piperazin-1-yl}-ethanone]	5.7 nM	8 µL/min/mg	9%	20%
Cc1nc(C)n(CC(=O)N2CCN(c3sc(C(F)(F)F)nc3-c3cnc(C4CC4)nc3)C[C@H]2C)n1 [Example 33, 1-{(R)-4-[4-(2-Cyclopropyl-pyrimidin-5-yl)-2-trifluoromethyl-thiazol-5-yl]-2-methyl-piperazin-1-yl}-2-(3,5-dimethyl-[1,2,4]triazol-1-yl)-ethanone]	2.9 nM	7 µL/min/mg	4%	17%
CCOc1ccc(-c2nc(C(F)(F)F)sc2N2CCN(C(=O)Cn3nc(C)nc3C)[C@H](C)C2)cn1 [Example 15, 2-(3,5-Dimethyl-[1,2,4]triazol-1-yl)-1-{(R)-4-[4-(6-ethoxy-pyridin-3-yl)-2-trifluoromethyl-thiazol-5-yl]-2-methyl-piperazin-1-yl}-ethanone]	9.2 nM	66 µL/min/mg	1%	13%
Cc1nc(C)n(CC(=O)N2CCN(c3sc(C(F)(F)F)nc3-c3cnc(N4CCCC4)nc3)C[C@H]2C)n1 [Example 36, 2-(3,5-Dimethyl-[1,2,4]triazol-1-yl)-1-{(R)-2-methyl-4-[4-(2-pyrrolidin-1-yl-pyrimidin-5-yl)-2-trifluoromethyl-thiazol-5-yl]-piperazin-1-yl}-ethanone]	1.6 nM	338 µL/min/mg	7%	15%
CCOc1ncc(-c2nc(C(F)(F)F)sc2N2CCN(C(=O)Cn3nc(CC)nc3C)[C@H](C)C2)cn1 (single isomer, unassigned) [Example 18]	3.1 nM	60 µL/min/mg	3%	13%
Cc1nc(C)n(CC(=O)N2CCN(c3sc(C(F)(F)F)nc3-c3cnc(OC4CCC4)nc3)C[C@H]2C)n1 [Example 38, 1-{(R)-4-[4-(2-Cyclobutoxy-pyrimidin-5-yl)-2-trifluoromethyl-thiazol-5-yl]-2-methyl-piperazin-1-yl}-2-(3,5-dimethyl-[1,2,4]triazol-1-yl)-ethanone]	2.3 nM	51 µL/min/mg	5%	11%
Cc1nc(C)n(CC(=O)N2CCN(c3sc(C(F)(F)F)nc3-c3ccc(OC(F)(F)F)cc3)C[C@H]2C)n1 [Example 3, 2-(3,5-Dimethyl-[1,2,4]triazol-1-yl)-1-{(R)-2-methyl-4-[4-(4-trifluoromethoxy-phenyl)-2-trifluoromethyl-thiazol-5-yl]-piperazin-1-yl}-ethanone]	9.8 nM		19%	60%

More lines, main results first:

IC50 (human CXCR3A)	microsomal CLint at 1 µM [1]	Compound	% block (hERG K channel; concentration 300 nM)	% block (hERG K channel; concentration 3000 nM)
15 nM	14 µL/min/mg	Cc1nc(CO)n(CC(=O)N2CCN(c3sc(C(F)(F)F)nc3-c3cnc(C(F)(F)F)nc3)C[C@H]2C)n1 [Example 45, 2-(5-Hydroxymethyl-3-methyl-[1,2,4]triazol-1-yl)-1-{(R)-2-methyl-4-[2-trifluoromethyl-4-(2-trifluoromethyl-pyrimidin-5-yl)-thiazol-5-yl]-piperazin-1-yl}-ethanone]	0%	1%
3.6 nM	4 µL/min/mg	Cc1nc(C)n(CC(=O)N2CCN(c3sc(C(F)(F)F)nc3-c3ccc(C(F)(F)F)nc3)C[C@H]2C)n1 [Example 49, 2-(3,5-Dimethyl-[1,2,4]triazol-1-yl)-1-{(R)-2-methyl-4-[2-trifluoromethyl-4-(6-trifluoromethyl-pyridin-3-yl)-thiazol-5-yl]-piperazin-1-yl}-ethanone]		
0.6 nM	1 µL/min/mg	CC[C@@H]1CN(c2sc(C(F)(F)F)nc2-c2cnc(C(F)(F)F)nc2)CCN1C(=O)Cn1nc(C)nc1C [Example 51, 2-(3,5-Dimethyl-[1,2,4]triazol-1-yl)-1-{(R)-2-ethyl-4-[2-trifluoromethyl-4-(2-trifluoromethyl-pyrimidin-5-yl)-thiazol-5-yl]-piperazin-1-yl}-ethanone]	6%	18%
	11 µL/min/mg	Cc1nc(C)n(CC(=O)N2CCN(c3sc(C(F)(F)F)nc3-c3cnc(C(F)(F)F)nc3)C[C@@H]2C)n1 [Example 50, 2-(3,5-Dimethyl-[1,2,4]triazol-1-yl)-1-{(S)-2-methyl-4-[2-trifluoromethyl-4-(2-trifluoromethyl-pyrimidin-5-yl)-thiazol-5-yl]-piperazin-1-yl}-ethanone]		
31 nM		Cc1nc(C)n(CC(=O)N2CCN(c3sc(C(F)(F)F)nc3-c3cnc4c(c3)CCCO4)C[C@H]2C)n1 [Example 39, 1-{(R)-4-[4-(3,4-Dihydro-2H-pyrano[2,3-b]pyridin-6-yl)-2-trifluoromethyl-thiazol-5-yl]-2-methyl-piperazin-1-yl}-2-(3,5-dimethyl-[1,2,4]triazol-1-yl)-ethanone]	3%	15%
